Organism: Rattus norvegicus
Assay: Open TG-GATES - Regimen: Single
Assay type: toxicity, organism-based, Sprague-Dawley
Set-up: regimen Single, gender Male, age 6 weeks
Details: in vivo, po, route gavage; for TP / gamma-GTP / ALP / AST / BUN / CRE / Ca / Cl / DBIL / GLC / IP / K / LDH / Na / PL / RALB / TBIL / TG / TC: tissue Plasma; for APTT / Bas / Eos / Fbg / Ht / MCH / MCHC / MCV / Mono / Plat / RBC / Ret / WBC / PT: tissue Blood; for KIDNEY_L / KIDNEY_R / KIDNEY_TOTAL: tissue Kidney; for LIVER: tissue Liver
[1] = 200 mg/kg, 24 h, dose level Middle
[2] = 600 mg/kg, 3 h, dose level High
[3] = 600 mg/kg, 6 h, dose level High
[4] = 600 mg/kg, 9 h, dose level High
[5] = 600 mg/kg, 24 h, dose level High

Compound: CC(=O)Nc1nnc(S(N)(=O)=O)s1 [ACETAZOLAMIDE]
- TP [1]: 5.7 g/dL
- gamma-GTP [1]: 1.4 IU/L
- TERMINAL_BW [2]: 215.3 g
- APTT [2]: 22.2 s
- Bas [2]: 0%
- Eos [2]: 1.2%
- Fbg [2]: 336.8 mg/dL
- Ht [2]: 42.8%
- MCH [2]: 21.1 pg
- MCHC [2]: 31.1%
- MCV [2]: 67.9 fL
- Mono [2]: 2%
- Plat [2]: 114.9 x10_4/uL
- RBC [2]: 630.4 x10_4/ul
- Ret [2]: 8.1%
- WBC [2]: 60.8 x10_2/uL
- KIDNEY_L [2]: 0.9 g
- KIDNEY_R [2]: 1 g
- KIDNEY_TOTAL [2]: 1.9 g
- LIVER [2]: 9.6 g
- ALP [2]: 1769.8 IU/L
- AST [2]: 76 IU/L
- BUN [2]: 12.2 mg/dL
- CRE [2]: 0.2 mg/dL
- Ca [2]: 11.1 mg/dL
- Cl [2]: 112 meq/L
- DBIL [2]: 0 mg/dL
- GLC [2]: 188.6 mg/dL
- IP [2]: 10.5 mg/dL
- K [2]: 4 meq/L
- LDH [2]: 209.8 IU/L
- Na [2]: 140.2 meq/L
- PL [2]: 140.4 mg/dL
- RALB [2]: 3.3 g/dL
- TBIL [2]: 0.008 mg/dL
- TG [2]: 24.8 mg/dL
- TP [2]: 5.9 g/dL
- gamma-GTP [2]: 1.2 IU/L
- TERMINAL_BW [3]: 204.7 g
- APTT [3]: 23.6 s
- Bas [3]: 0%
- Eos [3]: 1.4%
- Fbg [3]: 340.8 mg/dL
- Ht [3]: 42.8%
- MCH [3]: 21.2 pg
- MCHC [3]: 31.1%
- MCV [3]: 68 fL
- Mono [3]: 2.4%
- PT [3]: 16.8 s
- Plat [3]: 120.2 x10_4/uL
- RBC [3]: 628.2 x10_4/ul
- Ret [3]: 8.5%
- WBC [3]: 85.2 x10_2/uL
- KIDNEY_L [3]: 0.9 g
- KIDNEY_R [3]: 1 g
- KIDNEY_TOTAL [3]: 1.9 g
- LIVER [3]: 8.3 g
- ALP [3]: 1569.2 IU/L
- AST [3]: 69 IU/L
- BUN [3]: 10.6 mg/dL
- CRE [3]: 0.2 mg/dL
- Ca [3]: 11.1 mg/dL
- Cl [3]: 113 meq/L
- DBIL [3]: 0 mg/dL
- GLC [3]: 185.2 mg/dL
- IP [3]: 10.1 mg/dL
- K [3]: 3.8 meq/L
- LDH [3]: 205.4 IU/L
- Na [3]: 138.4 meq/L
- PL [3]: 149.8 mg/dL
- RALB [3]: 3.4 g/dL
- TBIL [3]: 0.016 mg/dL
- TC [3]: 90.4 mg/dL
- TG [3]: 23 mg/dL
- TP [3]: 6 g/dL
- gamma-GTP [3]: 1.2 IU/L
- TERMINAL_BW [4]: 201.6 g
- APTT [4]: 24 s
- Bas [4]: 0%
- Eos [4]: 0.8%
- Fbg [4]: 344.6 mg/dL
- Ht [4]: 43%
- MCHC [4]: 30.9%
- MCV [4]: 66.6 fL
- Mono [4]: 2.2%
- PT [4]: 16 s
- Plat [4]: 123.6 x10_4/uL
- RBC [4]: 645.4 x10_4/ul
- Ret [4]: 8.8%
- WBC [4]: 51.5 x10_2/uL
- KIDNEY_L [4]: 0.9 g
- KIDNEY_R [4]: 0.9 g
- KIDNEY_TOTAL [4]: 1.9 g
- LIVER [4]: 7.7 g
- ALP [4]: 1753.6 IU/L
- AST [4]: 59 IU/L
- BUN [4]: 13.4 mg/dL
- CRE [4]: 0.2 mg/dL
- Ca [4]: 11 mg/dL
- Cl [4]: 114.2 meq/L
- DBIL [4]: 0 mg/dL
- GLC [4]: 172.6 mg/dL
- IP [4]: 10 mg/dL
- K [4]: 3.8 meq/L
- LDH [4]: 176.4 IU/L
- Na [4]: 138.6 meq/L
- PL [4]: 127.8 mg/dL
- RALB [4]: 3.4 g/dL
- TBIL [4]: 0.02 mg/dL
- TC [4]: 85 mg/dL
- TG [4]: 11.4 mg/dL
- TP [4]: 6.1 g/dL
- gamma-GTP [4]: 1.2 IU/L
- TERMINAL_BW [5]: 199.5 g
- APTT [5]: 22.2 s
- Bas [5]: 0%
- Eos [5]: 1%
- Fbg [5]: 359.2 mg/dL
- Ht [5]: 41.1%
- MCH [5]: 20.3 pg
- MCHC [5]: 32.8%
- MCV [5]: 61.9 fL
- Mono [5]: 2.2%
- PT [5]: 16.9 s
- Plat [5]: 112.5 x10_4/uL
- RBC [5]: 663.8 x10_4/ul
- Ret [5]: 8%
- WBC [5]: 74.5 x10_2/uL
- KIDNEY_L [5]: 0.9 g
- KIDNEY_R [5]: 0.9 g
- KIDNEY_TOTAL [5]: 1.9 g
- LIVER [5]: 7.9 g
- ALP [5]: 1549.4 IU/L
- AST [5]: 49.6 IU/L
- BUN [5]: 18.8 mg/dL
- CRE [5]: 0.2 mg/dL
- Ca [5]: 10.7 mg/dL
- Cl [5]: 116.8 meq/L
- DBIL [5]: 0 mg/dL
- IP [5]: 8.2 mg/dL
- K [5]: 3.8 meq/L
- LDH [5]: 205.2 IU/L
- Na [5]: 140.6 meq/L
- PL [5]: 137.4 mg/dL
- RALB [5]: 3.5 g/dL
- TBIL [5]: 0.016 mg/dL
- TC [5]: 89.6 mg/dL
- TG [5]: 26.8 mg/dL
- TP [5]: 6 g/dL
- gamma-GTP [5]: 1.2 IU/L

Source: ChEMBL document CHEMBL3885861, “Open TG-GATES”
